Experimental data reported in patent publication US11154546B2, “Methods and compositions for treatment of mitochondrial toxicity” (Epirium Bio Inc., priority 2011, dated 2021).

Tests used:
[1] = test system: mitochondrial permeability transition pores; details: cited from earlier work
isolated mitochondria = assay: calcium induced mitochondrial damage (swelling, OD at 535 nm) in isolated heart mitochondria; type: biochemical, rat; details: 10^−14-10^−12 M; 33 μM CaCl2
Procedure: FIG. 6 depicts the protective effect of epicatechin on calcium induced mitochondrial damage (as measured by mitochondrial swelling). Swelling was evaluated by monitoring changes in optical density (OD, light absorbance) as follows: Hearts from male rats were excised and weighed. Left ventricles were homogenized (0.1 g/mL) in solution A (Sucrose 2M, EDTA 0.01M, Hepes 0.5M: pH=7.4), centrifuged 10 min (800×g), 4° C., the supernatant was centrifuged 10 min (8000×g), 4° C. and the pellet was re-suspended in solution B (Sucrose 2M, EDTA 0.01M, Tris 0.5M-H2PO4-50 mM: pH=7.4) and centrifuged 10 min (10000×g), 4° C. […] Pellet was re-suspended in 10 mL of solution C (Sucrose 2M, EDTA 0.01M, Tris 0.5M, H2PO4 50 mM, Succinate 1M: pH=7.4).

[2] = test system: differentiated human skeletal muscle cells; assay: mitochondrial respiration (oxygen consumption rate, Seahorse apparatus) in differentiated human skeletal muscle cells; type: cell-based; details: cells treated with 30 nM epicatechin for 48 h
Procedure: FIG. 1 depicts epicatechin stimulation on-demand mitochondrial respiration in human cells. […] Rates of respiration are reported as oxygen consumption rates (OCR) and were measured using a Seahorse apparatus.
FIG. 2 depicts blockade of epicatechin's stimulatory effect by an inhibitor of pyruvate transport.

[3] = fasting glucose levels in prednisolone-treated rats; type: in vivo, rat; details: prednisolone 10 mg/kg/day SC, 10 days
Procedure: Three groups of male rats were analyzed: 1) control group (saline solution, SC and saline solution by gavage BID); 2) prednisolone (10 mg/kg/day, SC and saline solution by gavage BID) and; 3) prednisolone (10 mg/kg/day, SC) plus epicatechin (Epi; 1 mg/kg/day by gavage BID). Blood samples were obtained from animals on each group after 12 hours fasting, Glucose levels were determined spectrophotometrically with an autokit glucose (Wako) kit.

[4] = oral glucose tolerance test in prednisolone-treated rats; type: in vivo, rat; details: prednisolone 10 mg/kg/day SC, 10 days; oral glucose 1.25 g/Kg, 0-4 hours
Procedure: Blood samples were obtained from animals on each group from 0-4 hours after an oral glucose charge (1.25 g/Kg). Glucose levels were determined spectrophotometrically with an autokit glucose (Wako) kit.

[5] = test system: mitochondrial oxidative phosphorylation (OXPHOS) related complexes; assay: Western blot of OXPHOS complexes in skeletal muscle of prednisolone-treated rats; type: in vivo; details: prednisolone 10 mg/kg/day SC, 10 days, rat quadriceps
Procedure: FIG. 3 depicts the effects of the administration of 10 consecutive days of prednisolone (10 mg/kg/day, SC) on rat skeletal muscle mitochondrial oxidative phosphorylation (OXPHOS) related complexes levels as assessed by Western blots. Three groups of male rats were analyzed: 1) control group (saline solution, SC and saline solution by gavage BID); 2) prednisolone (10 mg/kg/day, SC and saline solution by gavage BID); and 3) prednisolone (10 mg/kg/day, SC) plus epicatechin (Epi; 1 mg/kg/day by gavage BID). Western blots of isolated skeletal muscle (quadriceps) from each group were probed with a cocktail of monoclonal antibodies to electron transport chain proteins (OXPHOS) (20 KDa subunit of complex I, 26 KDa subunit of complex IV, subunit core 2 of complex III, 30 KDa complex II and ATP synthase 54 Kda complex V). […]
Western blots were performed as follows: Approximately 50 mg of the heart and quadriceps femoris muscles were homogenized with a polytron in 500 μl lysis buffer (1% triton X-100, 20 mM Tris, 140 mM NaCl, 2 mM EDTA, and 0.1% SDS) with protease and phosphatase inhibitor cocktails (P2714 and P2850, Sigma-Aldrich, St. Louis, Mo.) supplemented with 0.15 mM PMSF, 5 mM Na3VO4 and 3 mM NaF. […] The total protein content was measured in the supernatant using the Bradford method. […] The band intensities were digitally quantified using ImageJ software.

O=C(NCCO[N+](=O)[O-])c1cccnc1 [Nicorandil, N-[2-(Nitroxy)ethyl]-3-pyridinecarboxamide]
mitochondrial pore formation in response to ischemia [1]: prevent mitochondrial pore formation | calcium induced mitochondrial swelling (isolated mitochondria): blocks in a dose dependent manner

N#CC(=Cc1ccccc1)C(=O)O [a-cyannocinnamate]
blockade of epicatechin-stimulated maximal rates of respiration [2]: blocked

C[C@]12C=CC(=O)C=C1CC[C@@H]1[C@@H]2[C@@H](O)C[C@@]2(C)[C@H]1CC[C@]2(O)C(=O)CO [prednisolone]
glucose levels after 12 hours fasting [3]: significant hyperglycemia | oral glucose tolerance [4]: Abnormal glucose tolerance | skeletal muscle mitochondrial complex (I-V) levels [5]: reduced

OCC1OC(O)CC(O)C1O (stereo not shown) [deoxyglucose]
blockade of epicatechin-stimulated maximal rates of respiration [2]: not by deoxyglucose
